26 molecules from patent US5580552A, “7-glycosyloxybenzopyran derivative and antiallergic agent containing the derivative as active ingredient” (priority 1994, dated 1996) can be followed below.

Assay [1] relates to homologous passive cutaneous anaphylaxis (PCA) reaction. Nature of the assay: Effect on homologous passive cutaneous anaphylaxis (PCA) reaction in rats. Particulars: Rattus norvegicus, po, 0.5 h, 50 mg/kg oral, 1 hour before challenge (TABLE 2). It is filed as in vivo, rats (male wistar). Here is the method: Effect on homologous passive cutaneous anaphylaxis (PCA) reaction in rats.
This experimental animal model is caused by immediate type allergic reaction namely, antigen-antibody reaction. In the following, the method of this pharmacological test will be explained.
Method: Male wistar rats (9 weeks old) were intradermally administered 0.05 ml of anti-serum against dinitrophenylated ascaris (DNP-As) into two sites on the shaved dorsal skin. 48 hours later, 7-glycosyloxybenzopyran derivatives (test compounds) suspended in 0.5% sodium carboxymethylcellulose (CMCNa) were given orally at a dose of 50 mg/kg to the animals. One hour after administration of Test compounds, the animals were induced anaphylaxis by injection of saline (1 ml) dissolving 5 mg of Evans Blue and 1 mg of Trinitrophenylated ascaris (TNP-As) into the tail vein of the animals. 30 minutes after induction of anaphylaxis, animals were anesthetized by ether and killed by bleeding, and were flayed dorsal skin. The determination of extravasated dye was performed according to the method of Katayama et al. (Microbiol. Immunol., Vol.22, P 89-101, 1978). As vehicle control group, only 0.5% CMCNa solution was administered orally, and as positive control group, Tranilast suspended in 0.5% CMCNa was administered orally at a dose of 100 mg/kg to the animals with the same method as the test compounds groups. Each experimental group consisted of 5 rats. [formula]

Assay [2] concerns experimental asthma model (airway resistance). Kind of assay: Effect on experimental asthma model in guinea pigs (airway resistance). Format: in vivo, guinea pigs (male hartley). Particulars: Cavia porcellus, po, 0.5 h, 50 mg/kg oral (TABLE 6). Here is the method: Effect on experimental asthma model in guinea pigs
The asthma is typical allergic disease and we carried out this pharmacological test by well known experimental asthma model in guinea pigs in order to comfirm that the compounds of the present invention suppress the asthma. In the following, the method of the pharmacological test will be explained.
Method: Male hartley guinea pigs were immunized by intraperitoneal injection of saline (1ml) containing 5 mg of ovalbumine (OVA) three times at interval of one week. 2 weeks after final immunization, the animals were challenged by inhalation of 1% OVA-saline solution for 1 minute and then the airway resistance of the animals were measured for 30 minutes with PULMOS-1 (Medical Interface Project Station Inc.) after the inhalation. The compounds of the present invention (test compounds) suspended in 0.5% CMCNa were given orally at a dose of 50 mg/kg. As positive control group, Disodium Cromoglicate (DSCG), well known anti-allergic agent, in saline were injected at a dose of 20 mg/kg into the vein of the animals. As vehicle control group, only 0.5% CMCNa solution were given orally. The inhibition (%) of the airway resistance in vehicle control group was calculated according to equation 5 and the result was shown in TABLE 6. Each experimental group consisted of 5 guinea pigs. [formula]
A: Maximum airway resistance in vehicle control group
B: Maximum airway resistance in test compounds group or positive control group

Assay [3] relates to contact dermatitis induced by picryl chloride. Nature of the assay: Effect on contact dermatitis induced by picryl chloride in mice. Particulars: Mus musculus, po, 24 h, 50 mg/kg oral, 1 hour before and 16 hours after challenge; 24 hours after challenge; read-out: Inhibition (%) against the increase of ear thickness. It is filed as in vivo. As for the experimental part:
Effect on contact dermatitis induced by picryl chloride in mice
The delayed type hypersensitization is inhibited by steroid drugs,but can not be effected by known anti-allergic agents. In the following, the method of the pharmacological test will be explained.
Method: Mice, shaved their abdominal skin on previous day, were immunized by applying 0.1 ml of acetone containing 7 mg of picryl chloride to the skin of the abdomen. 7 days after immunization, the thickness of the ear was measured with a dial thickness gauge, then mice were challenged by painting 5 μl of 1% picryl chloride olive oil solution to each side skin of left ear. 24 hours after challenge, the thickness of the left ear was measured again and the increase (%) of thickness was calculated according to equation 2. The compounds of the present invention (test compounds) suspended in 0.5% CMCNa were forcibly administered orally at a dose of 50 mg/kg at 1 hour before and 16 hours after challenge. As vehicle control group, only 0.5% CMCNa solution were administered orally, and as positive control group, Prednisolone, steroid hormone, and Tranilast were administered orally at the doses of 10 mg/kg and 100 mg/kg, respectively.
Increase (%)=(A-B)/B×100 (Equation 2)
A: thickness of the ear at 24 hours after challenge
B: thickness of the ear before challenge
Inhibition (%)=(C-D)/C×100 (equation 3)
C: The increase (%) in vehicle control group
D: The increase (%) in test compounds group or positive control group

Regarding `CCCCCCCCCCCCOc1c(O)c2ccc(O[C@@H]3O[C@H](CO)[C@@H](O)[C@H](O)[C@H]3O)cc2oc1=O` [compound 41], the inhibition in vivo at 50 mg/kg in assay [1] is 55.4%; in assay [2] it was 70.2%; in assay [3], 60.1%.
In the case of `CC(C)Oc1c(O)c2ccc(O[C@@H]3O[C@H](CO)[C@@H](O)[C@H](O)[C@H]3O)cc2oc1=O` [compound 42], the inhibition in vivo at 50 mg/kg in assay [1] was 56.4%; in assay [2], 68.5%; in assay [3], 58.3%.
On to `CC1CCC(Oc2c(O)c3ccc(O[C@@H]4O[C@H](CO)[C@@H](O)[C@H](O)[C@H]4O)cc3oc2=O)CC1` (stereo partly drawn) [compound 43], for which the inhibition in vivo at 50 mg/kg in assay [1] turned out to be 57.9%; in assay [2] it was 70.7%; in assay [3], 55.4%.
As to `C=COc1c(O)c2ccc(O[C@@H]3O[C@H](CO)[C@@H](O)[C@H](O)[C@H]3O)cc2oc1=O` [compound 44], the results for the inhibition in vivo at 50 mg/kg in assay [1], in assay [2] and in assay [3] were 54.5%, 65.1% and 56.3%, respectively.
As to `CCC=CCCOc1c(O)c2ccc(O[C@@H]3O[C@H](CO)[C@@H](O)[C@H](O)[C@H]3O)cc2oc1=O` [compound 45], the inhibition in vivo at 50 mg/kg in assay [1] stood at 55.2%; in assay [2] it was 62.3%; in assay [3] it was 54.2%.
For `CC(C)=CCC/C(C)=C/COc1c(O)c2ccc(O[C@@H]3O[C@H](CO)[C@@H](O)[C@H](O)[C@H]3O)cc2oc1=O` [compound 46], the figures for the inhibition in vivo at 50 mg/kg in assay [1], in assay [2] and in assay [3] were 54.3%, 63.4% and 57.6%, respectively.
Turning to `O=c1oc2cc(O[C@@H]3O[C@H](CO)[C@@H](O)[C@H](O)[C@H]3O)ccc2c(O)c1OCc1ccccc1` [compound 47], the inhibition in vivo at 50 mg/kg was 52.1% in assay [1], 59.1% in assay [2] and 51.9% in assay [3].
As to `O=c1oc2cc(O[C@H]3O[C@H](CO)[C@@H](O)[C@H](O)[C@@H]3O)ccc2c(O)c1O` [compound 61], the inhibition in vivo at 50 mg/kg is 40.2% in assay [1], 45.2% in assay [2] and 43.1% in assay [3].
Regarding `CCCCOc1c(O)c2ccc(O[C@H]3O[C@H](CO)[C@@H](O)[C@H](O)[C@@H]3O)cc2oc1=O` [compound 62], the inhibition in vivo at 50 mg/kg turned out to be 53.2% in assay [1], 50.1% in assay [2] and 49.3% in assay [3].
With `CCCCCCOc1c(O)c2ccc(O[C@H]3O[C@H](CO)[C@@H](O)[C@H](O)[C@@H]3O)cc2oc1=O` [compound 63], the inhibition in vivo at 50 mg/kg in assay [1] came to 55.7%; in assay [2] it was 53.2%; in assay [3] it was 53.1%.
With `CCCCCCCCOc1c(O)c2ccc(O[C@H]3O[C@H](CO)[C@@H](O)[C@H](O)[C@@H]3O)cc2oc1=O` [compound 64], the values for the inhibition in vivo at 50 mg/kg in assay [1], in assay [2] and in assay [3] were 54.9%, 57.2% and 52.6%, respectively.
For `CCCCCCCCCCOc1c(O)c2ccc(O[C@H]3O[C@H](CO)[C@@H](O)[C@H](O)[C@@H]3O)cc2oc1=O` [compound 65], in that order: 52.1%, 49.3% and 50.3%.
For the molecule `CCCCCCCCCCCCOc1c(O)c2ccc(O[C@H]3O[C@H](CO)[C@@H](O)[C@H](O)[C@@H]3O)cc2oc1=O` [compound 66], the inhibition in vivo at 50 mg/kg in assay [1] was 49.3%; in assay [2], 54.3%; in assay [3] it was 51.4%.
Turning to `CC(C)Oc1c(O)c2ccc(O[C@H]3O[C@H](CO)[C@@H](O)[C@H](O)[C@@H]3O)cc2oc1=O` [compound 67], the inhibition in vivo at 50 mg/kg is 50.4% in assay [1], 60.2% in assay [2] and 53.2% in assay [3].
As for `CC1CCC(Oc2c(O)c3ccc(O[C@H]4O[C@H](CO)[C@@H](O)[C@H](O)[C@@H]4O)cc3oc2=O)CC1` (stereo partly drawn) [compound 68], the inhibition in vivo at 50 mg/kg in assay [1] is 49.5%; in assay [2] it was 63.5%; in assay [3], 47.3%.
Take `C=COc1c(O)c2ccc(O[C@H]3O[C@H](CO)[C@@H](O)[C@H](O)[C@@H]3O)cc2oc1=O` [compound 69]: the inhibition in vivo at 50 mg/kg came to 48.1% in assay [1], 59.3% in assay [2] and 49.9% in assay [3].
Regarding `CCC=CCCOc1c(O)c2ccc(O[C@H]3O[C@H](CO)[C@@H](O)[C@H](O)[C@@H]3O)cc2oc1=O` [compound 70], the inhibition in vivo at 50 mg/kg was found to be 51.3% in assay [1], 65.6% in assay [2] and 52.1% in assay [3].
For `CC(C)=CCC/C(C)=C/COc1c(O)c2ccc(O[C@H]3O[C@H](CO)[C@@H](O)[C@H](O)[C@@H]3O)cc2oc1=O` [compound 71], the inhibition in vivo at 50 mg/kg in assay [1] stood at 49.8%; in assay [2], 63.2%; in assay [3], 47.4%.
On to `O=c1oc2cc(O[C@H]3O[C@H](CO)[C@@H](O)[C@H](O)[C@@H]3O)ccc2c(O)c1OCc1ccccc1` [compound 72], for which the inhibition in vivo at 50 mg/kg was 45.2% in assay [1], 52.1% in assay [2] and 42.3% in assay [3].
On to `CCCCCCOc1c(OCc2ccccc2)c2ccc(O[C@@H]3O[C@H](COC(C)=O)[C@H](OC(C)=O)[C@H](OC(C)=O)[C@H]3OC(C)=O)cc2oc1=O` [compound 75], for which the inhibition in vivo at 50 mg/kg turned out to be 45.5% in assay [1], 43.5% in assay [2] and 40.3% in assay [3].
With `CCCCOc1c(O)c2ccc(O[C@@H]3O[C@H](CO)[C@H](O)[C@H](O)[C@H]3O)cc2oc1=O` [compound 86], the values for the inhibition in vivo at 50 mg/kg in assay [1], in assay [2] and in assay [3] were 56.4%, 73.2% and 59.4%, respectively.
Consider `CCCCCCOc1c(O)c2ccc(O[C@@H]3O[C@H](CO)[C@H](O)[C@H](O)[C@H]3O)cc2oc1=O` [compound 87], for which the inhibition in vivo at 50 mg/kg in assay [1] came out at 60.3%; in assay [2], 79.5%; in assay [3], 64.9%.
On to `CCCCCCCCOc1c(O)c2ccc(O[C@@H]3O[C@H](CO)[C@H](O)[C@H](O)[C@H]3O)cc2oc1=O` [compound 88], for which the inhibition in vivo at 50 mg/kg in assay [1] turned out to be 61.5%; in assay [2], 80.2%; in assay [3] it was 66.8%.
For `CCCCCCCCCCOc1c(O)c2ccc(O[C@@H]3O[C@H](CO)[C@H](O)[C@H](O)[C@H]3O)cc2oc1=O` [compound 89], the values for the inhibition in vivo at 50 mg/kg in assay [1], in assay [2] and in assay [3] were 57.8%, 77.3% and 62.3%, respectively.
Regarding `CCCCCCCCCCCCOc1c(O)c2ccc(O[C@@H]3O[C@H](CO)[C@H](O)[C@H](O)[C@H]3O)cc2oc1=O` [compound 90], the inhibition in vivo at 50 mg/kg was 54.3% in assay [1], 72.1% in assay [2] and 60.1% in assay [3].
With `CC(C)Oc1c(O)c2ccc(O[C@@H]3O[C@H](CO)[C@H](O)[C@H](O)[C@H]3O)cc2oc1=O` [compound 91], the inhibition in vivo at 50 mg/kg in assay [1] was found to be 55.5%; in assay [2] it was 69.5%; in assay [3], 59.3%.
